Data: patent EP4729615A1, “SIRNA TARGETING MMP7, SIRNA CONJUGATE AND MEDICAL USE THEREOF” (Tuojie Biotech (Shanghai) Co., Ltd., priority 2023, dated 2024)
pIC50: −log10 of the molar value. Strand notation (5' to 3'): a small letter for the sugar, then the base; units joined by * are phosphorothioate-linked, units joined directly phosphodiester-linked; [ ] holds rarer units or linkages, { } end groups; capitals alone tell only the bases. {I-14} = ligand I-14 conjugated at sense 5' end; m = 2'-O-methyl; f = 2'-fluoro

Key:
[1] = target: human recombinant αvβ6 protein (Homo sapiens, UniProt P06756+P18564); test: fluorescence polarization (FP) binding assay with fluorescent RGD peptide; details: 12 concentration points, highest 10 µM, 3-fold serial dilution
Chain of human recombinant αvβ6 protein (P06756 31-992 limits assumed): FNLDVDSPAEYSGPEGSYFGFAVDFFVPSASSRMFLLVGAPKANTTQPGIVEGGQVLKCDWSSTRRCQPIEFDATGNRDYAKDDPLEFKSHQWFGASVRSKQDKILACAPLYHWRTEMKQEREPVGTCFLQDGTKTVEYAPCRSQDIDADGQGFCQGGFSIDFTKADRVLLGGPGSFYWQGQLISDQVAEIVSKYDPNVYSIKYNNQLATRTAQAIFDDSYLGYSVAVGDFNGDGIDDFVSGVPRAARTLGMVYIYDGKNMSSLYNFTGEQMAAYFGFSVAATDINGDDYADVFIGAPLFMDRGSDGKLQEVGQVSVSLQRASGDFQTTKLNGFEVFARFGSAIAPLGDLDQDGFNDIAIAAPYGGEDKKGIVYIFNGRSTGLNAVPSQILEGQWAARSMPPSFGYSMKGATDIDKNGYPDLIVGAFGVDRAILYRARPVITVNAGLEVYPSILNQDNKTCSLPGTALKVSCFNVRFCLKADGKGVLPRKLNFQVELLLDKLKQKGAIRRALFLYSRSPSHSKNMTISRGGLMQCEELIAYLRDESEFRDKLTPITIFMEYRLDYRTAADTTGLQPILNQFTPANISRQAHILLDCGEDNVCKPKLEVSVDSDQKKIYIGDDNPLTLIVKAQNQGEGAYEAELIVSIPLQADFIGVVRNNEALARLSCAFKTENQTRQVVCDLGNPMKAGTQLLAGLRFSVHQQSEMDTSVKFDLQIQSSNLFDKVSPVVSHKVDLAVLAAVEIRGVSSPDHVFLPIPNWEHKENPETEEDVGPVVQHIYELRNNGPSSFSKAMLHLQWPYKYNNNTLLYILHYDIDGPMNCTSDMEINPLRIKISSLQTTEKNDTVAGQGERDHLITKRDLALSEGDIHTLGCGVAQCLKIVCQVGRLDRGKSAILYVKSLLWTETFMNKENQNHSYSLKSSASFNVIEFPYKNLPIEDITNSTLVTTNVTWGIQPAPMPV
Chain of human recombinant αvβ6 protein (P18564 22-707 limits assumed): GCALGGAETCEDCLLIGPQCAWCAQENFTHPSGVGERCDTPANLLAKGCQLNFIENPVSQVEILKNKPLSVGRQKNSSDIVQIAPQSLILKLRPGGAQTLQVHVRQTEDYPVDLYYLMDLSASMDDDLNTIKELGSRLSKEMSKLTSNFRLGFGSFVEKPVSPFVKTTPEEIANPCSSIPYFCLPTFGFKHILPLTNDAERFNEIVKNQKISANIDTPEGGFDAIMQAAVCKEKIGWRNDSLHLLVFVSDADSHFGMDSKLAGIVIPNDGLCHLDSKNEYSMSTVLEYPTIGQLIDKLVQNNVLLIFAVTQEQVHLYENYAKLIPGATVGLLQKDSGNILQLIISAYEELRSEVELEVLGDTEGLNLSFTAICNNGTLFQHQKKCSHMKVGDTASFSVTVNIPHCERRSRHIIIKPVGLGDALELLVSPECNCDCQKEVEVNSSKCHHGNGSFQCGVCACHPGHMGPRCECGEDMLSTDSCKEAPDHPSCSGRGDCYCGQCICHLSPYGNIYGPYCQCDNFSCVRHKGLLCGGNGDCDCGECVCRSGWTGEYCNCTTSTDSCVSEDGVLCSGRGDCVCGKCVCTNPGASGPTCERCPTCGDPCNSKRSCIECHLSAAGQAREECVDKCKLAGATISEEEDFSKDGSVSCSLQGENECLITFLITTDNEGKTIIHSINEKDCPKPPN
Method: The specific assay method is as follows: • 3.5 µL of test compound I-12 was added to a 384-well black plate. For the test compound, 12 concentration points were set up. The highest concentration was 10 µM, and 3-fold serial dilution was performed. DMSO control wells were used to determine the maximum signal, and 500 nM compound CWHM-12 (MCE, HY-18644) control wells were used as the minimum signal. Then, 3.5 µL of 4× human recombinant αvβ6 protein working solution was added. After incubation at room temperature for 15 min, 7 µL of 2× fluorescent RGD peptide solution was added to each well. The plate was incubated at room temperature for 1 h, and then FP signals were read using Envision. Using GraphPad Prism, the inhibition curve fitting was performed, and the IC50 value was calculated. The IC50 value (Z prime > 0.5) was calculated using the following formula: Y = Bottom + (Top−Bottom)/(1+10^(∧)((LogIC50−X)×HillSlope)) [formula] • X: Log inhibitor concentration; Y: inhibition rate %.

MMP7 mRNA = test: on-target activity of siRNA conjugates at 2 endogenous concentration points in HCC38 cells, Q-PCR (Example 10); type: cell-based, human; details: 24 h after transfection; for 2 nM remaining expression (%): siRNA conjugate 2 nM; for 10 nM remaining expression (%): siRNA conjugate 10 nM
Method: The siRNA conjugates were subjected to an in vitro molecular-level activity screening in HCC38 cells using 2 concentration gradients.
HCC38 cells were cultured at 37 °C with 5% CO2 in a 1640 culture medium containing 10% fetal bovine serum. 24 h prior to transfection, the HCC38 cells were seeded into a 96-well plate at a density of 1.5 × 10^4 cells per well, with each well containing 100 µL of the culture medium.
The cells were transfected with the siRNA conjugates using Lipofectamine RNAi Max (Invitrogen, 13778-150) according to the instructions. 0.3 µL of Lipofectamine RNAi Max was used for each well. A total of 2 concentration points were set for the siRNA conjugates, i.e., 10 nM and 2 nM, respectively. 24 h after transfection, RNA was extracted for Q-PCR to detect the activity of the siRNA conjugates. […] Table 9. Activity results of siRNA conjugates at 2 concentration points at the HCC38 cellular level

| Compound | pIC50 [1] | 2 nM remaining expression (%) (MMP7 mRNA) | 10 nM remaining expression (%) (MMP7 mRNA) |
| --- | --- | --- | --- |
| [N-]=[N+]=NCCOCCOCCOCCOCCOc1ccc(-c2ccc([C@H](CC(=O)O)NC(=O)CNC(=O)CCCNc3cc4ccccc4cn3)cc2)c2ccccc12 [I-12] | 7.10 | – | – |
| TJR103312: siRNA conjugate containing I-14; SS SEQ ID NO 28 (I-14UmsGmsGmGmUmAmGfAfUfGmUmCmAmAmUmAmAmAmUm), AS SEQ ID NO 58 (sense {I-14}-mU*mG*mGmGmUmAfGfAfUmGmUmCmAmAmUmAmAmAmU; antisense AUUUAUUGACAUCUACCCACU; antisense: chemistry not given here) | – | 11.35% | 8.20% |
| TJR103313: siRNA conjugate containing I-14; SS SEQ ID NO 29 (I-14UmsGmsAmCmUmCmAfGfAfAmAmCmAmAmAmAmAmAmUm), AS SEQ ID NO 59 (sense {I-14}-mU*mG*mAmCmUmCfAfGfAmAmAmCmAmAmAmAmAmAmU; antisense AUUUUUUGUUUCUGAGUCAUA; antisense: chemistry not given here) | – | 8.05% | 4.23% |
| TJR103314: siRNA conjugate containing I-14; SS SEQ ID NO 30 (I-14AmsUmsUmCmAmAmGfAfAfAmGmAmAmAmUmAmGmAmAm), AS SEQ ID NO 60 (sense {I-14}-mA*mU*mUmCmAmAfGfAfAmAmGmAmAmAmUmAmGmAmA; antisense UUCUAUUUCUUUCUUGAAUUA; antisense: chemistry not given here) | – | 14.73% | 8.03% |
